# US20230263746A1, “Synergistic Polyamine Combinations And Methods Therefor” (Compound Solutions Inc., priority 2022, published 2023)
# Entries after “also recorded” stand apart in the source; their conditions may differ.
# Tests used:
# wildtype C. elegans [1] = test: Locomotor activity (healthspan) scoring in C. elegans with respect to age; assay type: in vivo
# Source text: FIG. 7 depicts a method of scoring locomotor activity in C. elegans wherein the animal's displacement from a fixed boundary determines an activity score. […] Using C. elegans as test subjects, this measurement can be accomplished by assigning each animal a digitally fixed boundary and observing each animal's displacement from that boundary. […] An additional control group was given no treatment. All groups were loaded into chips at the L4-stage. From the 1st day of adulthood, the animals were switched to heat-killed OP50 plus the appropriate compound. The displacement of each animal from its assigned fixed boundary determined an activity score.
# wildtype C. elegans [2] = test: Lifespan in a C. elegans model; assay type: in vivo; conditions: for effect on lifespan compared to control: 100 μM resveratrol, 500 μM NMN, 20 μg/mL spermidine, 6 μg/mL spermine, or 20 μg/mL spermidine with 6 μg/mL spermine, scored daily until all animals dead; for fraction of live organisms at the same date compared to control: at and after day 12 (latter third in life), FIG. 4
# Source text: One physiological marker found to be beneficially and synergistically modulated by the compositions presented herein is lifespan. […] An additional control group was given no treatment. All groups were loaded into chips at the L4-stage. From the 1st day of adulthood, the animals were switched to heat-killed OP50 plus the appropriate compound. Chips were scored daily until all animals were dead.
# [3] = days 10 and 12 of animal life, 100 μM resveratrol, 500 μM NMN
SMILES,locomotor activity compared to untreated/wildtype (wildtype C. elegans [1]; [3]),effect on lifespan compared to control (wildtype C. elegans [2]),"locomotor activity compared to untreated/wildtype (wildtype C. elegans [1]; with respect to age (all ages scored), 20 μg/mL spermidine)",fraction of live organisms at the same date compared to control (wildtype C. elegans [2]),"locomotor activity compared to untreated/wildtype (wildtype C. elegans [1]; day 8 of animal life, 6 μg/mL spermine)","locomotor activity compared to untreated/wildtype (wildtype C. elegans [1]; later ages (after day 8), 6 μg/mL spermine)"
"Oc1ccc(C=Cc2cc(O)cc(O)c2)cc1 [resveratrol, reference compound]",remain more active than the wildtype C. elegans; also recorded: significantly higher levels of activity than untreated groups,strongest increase to lifespan compared to control,,,,
NCCCCNCCCN [spermidine],,"weakest effect on lifespan, yet still significant; also recorded: slight lifespan extension compared to the untreated group",do not show statistically significant difference in activity levels compared to wildtype C. elegans; also recorded: did not show any significant difference in activity levels compared to the untreated group,increased over control,,
NCCCNCCCCNCCCN [spermine],,significant effects on lifespan,,increased over control,significantly more activity; also recorded: significant differences in activity levels compared to the untreated group,does not seem to persist significantly into later ages; also recorded: did not persist into later ages
"NC(=O)c1ccc[n+]([C@@H]2O[C@H](COP(=O)([O-])O)[C@@H](O)[C@H]2O)c1 [NMN, nicotinamide mononucleotide, reference compound]",significantly higher levels of activity than the wildtype C. elegans; also recorded: significantly higher levels of activity than untreated groups,strongest increase to lifespan compared to control,,,,
